These results are taken from ChEMBL document CHEMBL1129678, “Structure-activity relationships in a series of 2(1H)-quinolones bearing different acidic function in the 3-position: 6,7-dichloro-2(1H)-oxoquinoline-3-phosphonic acid, a new potent and selective AMPA/kainate antagonist with neuroprotective properties” (J Med Chem, 1996).

The target in assay [1] is Glutamate NMDA receptor. Put plainly: Antagonistic activity against N-methyl-D-aspartate glutamate receptor 1 in Xenopus oocytes. It is filed as functional, cell-based. To be noted: oocyte.
Assay [2] deals with Glutamate NMDA receptor. The assay can be described thus: Inhibitory activity against [3H]glycine binding site of N-methyl-D-aspartate glutamate receptor 1 in rat cortical membranes. It is filed as cell membranes, Membrane.
Assay [3] has as its target Glutamate receptor ionotropic, kainate. Put plainly: Antagonistic activity against rat ionotropic glutamate receptor ionotropic kainate in xenopus oocytes. In kind it is functional, cell-based. The following applies: oocyte.
Assay [4] relates to Mus musculus. Put plainly: Effective dose of a compound to […] 50% audiogenic seizures in DBA/2 mice when administered by ip (mg/Kg). It is filed as functional.
Assay [5] can be described thus: Selectivity between AMPA/kainate receptor and NMDA/glycine receptor. The arrangement: reference not given here.
For assay [6], the target named is AMPA receptor (Rattus norvegicus). Put plainly: Inhibitory activity against [3H]AMPA binding to rat cortical membranes.
The subject of assay [7] is Mus musculus. The assay can be described thus: Effective dose required to protect 50% of DBA/2 mice from audiogenic seizures, after ip administration. In kind it is functional.
Assay [8] has as its system Mus musculus. Put plainly: Effective dose of a compound to […] 50% audiogenic seizures in DBA/2 mice when administered by po (mg/kg); Not active. It is filed as functional, organism-based.
Assay [9] deals with Gerbillinae. The assay can be described thus: %Protection against transient global ischemia in adult Mongolian gerbil at dose 30 mg/kg by ip administration tested against 6. It is filed as functional. The following applies: route intraperitoneal.
The test system of assay [10] is Gerbillinae. Put plainly: %Protection against transient global ischemia in adult Mongolian gerbil at dose 10 mg/kg by ip administration tested against 10. It is filed as functional. To be noted: route intraperitoneal.
Assay [11] relates to Mus musculus. The assay can be described thus: Effective dose required to protect 50% of DBA/2 mice from audiogenic seizures, after po administration. It is filed as functional.
The test system of assay [12] is Gerbillinae. The assay can be described thus: %Protection against transient global ischemia in adult Mongolian gerbil at dose 30 mg/Kg by ip administration tested against 6. In kind it is functional.
The test system of assay [13] is Gerbillinae. Put plainly: %Protection against transient global ischemia in adult Mongolian gerbil at dose 10 mg/Kg by ip administration tested against 10. It is filed as functional.

Activity calls are given as the source filed them. The calls are words filed in the database; no cut-off is given here.

As usually defined, the IC50 is the midpoint of a concentration-inhibition curve. As usually defined, the ED50 is the midpoint of the dose-response relation. `O=P(O)(O)c1cc2c(Cl)cc(Cl)cc2nc1O`: the IC50 in assay [1] was 30 µM; in assay [2], 5.1 µM; in assay [3], 4 µM; in assay [6], 3.5 µM. Moreover, the ED50 in [4] is above 50 mg/kg. In assay [5], this compound yielded a Selectivity of 7.5.

Consider `O=P(O)(O)c1cc2cc(F)c(F)cc2nc1O`, for which the figures for the IC50 in assay [1] and in [3] were 111 µM and 65 µM, respectively. The same compound returned a Selectivity in assay [5] of 1.71.

As to `O=C(O)c1cc2cc([N+](=O)[O-])c([N+](=O)[O-])cc2nc1O`, the ED50 in assay [7] is above 50 mg/kg. For the same compound, the IC50 stood at 0.57 µM in assay [1], 1.8 µM in assay [2], 0.3 µM in assay [3] and 0.15 µM in assay [6]. In [5], this compound returned a Selectivity of 1.9.

In assay [7], `O=[N+]([O-])c1cc2cc(NS(=O)(=O)C(F)(F)F)c(O)nc2cc1[N+](=O)[O-]` registered an ED50 above 50 mg/kg. The IC50 in [1] came out at 0.16 µM; in assay [2], 1.38 µM; in assay [3], 0.16 µM; in assay [6], 0.09 µM. In addition, the Selectivity in assay [5] was 1.

On to `O=[N+]([O-])c1ccc2cc(-c3nnc(O)o3)c(O)nc2c1`, for which the IC50 in assay [1] and in assay [3] was above 100 µM throughout.

In the case of `O=c1[nH]c2cc(Cl)c(Cl)cc2cc1P(=O)(O)O`, the IC50 in assay [1] is 83.5 µM; in [2], 111 µM; in [3] it was 2.1 µM; in [6], 0.9 µM.

For `CCOP(=O)(O)c1cc2cc(Cl)c(Cl)cc2nc1O`, the IC50 in [1] worked out at 40 µM; in assay [3], 15 µM. Further, the Selectivity in [5] was 2.6.

On to `O=C(O)c1cc2cc(Cl)c(Cl)cc2nc1O`, for which the values for the IC50 in [1] and in [3] were 0.81 µM and 10 µM, respectively. The compound further displayed a Selectivity in assay [5] of 0.08.

In the case of `O=[N+]([O-])c1cc2cc(-c3nn[nH]n3)c(O)nc2cc1[N+](=O)[O-]`, the IC50 turned out to be 20 µM in assay [1] and 0.6 µM in assay [3]. In addition, the Selectivity in assay [5] was 33.

Take `O=c1[nH]c2cc([N+](=O)[O-])ccc2cc1-c1cc(O)n[nH]1`: the IC50 in assay [1] is above 100 µM; in [3], above 30 µM.

As for `O=C(Nc1nn[nH]n1)c1cc2ccc([N+](=O)[O-])cc2nc1O`, the IC50 in assay [1] was above 16 µM; in assay [3] it was 100 µM. In assay [5], this compound came in with a Selectivity above 0.16.

`O=C(O)c1cc2c(Cl)cc(Cl)cc2nc1O`: the results for the IC50 in assay [1] and in [3] were 0.65 µM and 8 µM, respectively. Further, the Selectivity in assay [5] stood at 0.08.

For the compound `NS(=O)(=O)c1cccc2c1c([N+](=O)[O-])cc1nc(O)c(O)nc12` [NBQX], the ED50 in assay [7] was determined as 8 mg/kg. The IC50 in assay [1] was 255 µM; in assay [2] it was above 500 µM. Moreover, the ED50 entry in assay [8] is “inactive”. The results for the Protection in [9] and in [10] were 50% and 40%, respectively.

Regarding `O=[N+]([O-])c1cc2cc(P(=O)(O)O)c(O)nc2cc1[N+](=O)[O-]`, the IC50 in assay [1] stood at 51.5 µM; in assay [3] it was 0.15 µM. For the same compound, the Selectivity in assay [5] was 343.

As for `OB(O)c1cc2c(Cl)cc(Cl)cc2nc1O`, the IC50 in assay [1] is above 300 µM; in assay [3], above 100 µM.

As for `O=P(O)(OCC1CCCC1)c1cc2cc(Cl)c(Cl)cc2nc1O`, the IC50 in assay [1] amounted to 74 µM; in assay [3] it was 15 µM. This compound also returned a Selectivity in assay [5] of 5.

As for `O=C(O)CSc1cc2ccc([N+](=O)[O-])cc2nc1O`, the IC50 in assay [1] was above 100 µM; in [3] it was 5 µM. This compound also displayed a Selectivity in [5] above 20.

Regarding `O=[N+]([O-])c1ccc2cc(P(=O)(O)O)c(O)nc2c1`, the figures for the IC50 in [1] and in [3] were 57 µM and 1.4 µM, respectively. The Selectivity in assay [5] was found to be 41.

For the compound `O=C(O)c1cc2ccc([N+](=O)[O-])cc2nc1O`, the IC50 in assay [1] came out at 6.5 µM; in assay [3] it was 1.3 µM. In [5], this compound yielded a Selectivity of 5.

Turning to `O=C(NO)c1cc2ccc([N+](=O)[O-])cc2nc1O`, the IC50 was above 100 µM in [1] and 10 µM in assay [3]. Moreover, in assay [5], the Selectivity was above 10.

Turning to `CP(=O)(O)c1cc2c(Cl)cc(Cl)cc2nc1O`, the IC50 in assay [1] was 51 µM; in assay [3], above 100 µM. Also, the Selectivity in assay [5] was below 0.5.

Regarding `O=[N+]([O-])c1ccc2cc(-c3nn[nH]n3)c(O)nc2c1`, the figures for the IC50 in [1] and in assay [3] were above 16 µM and 3 µM, respectively. The Selectivity in [5] is above 5.

`O=P(O)(O)c1cc2cc(Cl)c(Cl)cc2nc1O`: the figures for the ED50 in assay [7] and in assay [11] were 19 mg/kg and 45 mg/kg, respectively. The Protection in [12] was determined as 100%; in assay [13], 40%. The same compound gave a Selectivity in assay [5] of 39.8.

On to `O=c1[nH]c2cc(-n3ccnc3)c([N+](=O)[O-])cc2[nH]c1=O` [YM-90K], for which the figures for the IC50 in assay [1] and in assay [3] were 30.5 µM and 0.3 µM, respectively. The Selectivity in [5] stood at 102.

On to `NC(=O)c1cc2ccc([N+](=O)[O-])cc2nc1O`, for which the IC50 in assay [1] and in [3] was above 300 µM each time.
